Key:
KIF2C = target: T1, KIF2C (Homo sapiens, UniProt Q99661); assay: In vitro microtubule depolymerization assay; type: biochemical; conditions: 50 μM 7S9, recombinant KIF2C and ATP, 30 min
T1 construct: KIF2C (216-598 a.a.); 6xHis (C); made in house; host or cells: E. coli BL21 (DE3), pET-28a
Method: Additional purified KIF2C (0.5 ng/μl), ATP (0.75 mM), and 7S9 (50 μM) were included in a typical 10 μL reaction, as indicated, loaded onto a p-Slide (Ibidi, 81506) and incubated at 37° C. for 30 min. Images were acquired using the Leica DMI6000 microscope with an HCX PL FL 20×/0.4 and Andor Neo sCMOS camera, which were all processed by MetaMorph software (Molecular Devices, LLC. San Jose, CA, USA).

4T1 cells [1] = assay: Flow cytometry analysis of cell membrane penetration ability; type: cell-based, mouse; conditions: 2 hr of drug treatment
Method: To quantify the cell membrane penetration ability of different DHTP analogs, 4T1 cells were collected by trypsin after 2 hr of drug treatment and then transferred into microcentrifuge tubes. 4T1 cells were then resuspended into the FACS buffer (1% FBS, 2 mM EDTA, and 0.05% NaN3 in PBS). After two times of FACS buffer rinsing, these samples were detected by flow cytometry (Cyto FLEX™ FLOW Cytometer). The KO525 (405 nm laser; 525 nm filter) channel was used to detect DHTP and 7S9.

4T1 R8 cells [2] = assay: Time-lapse imaging of mitotic progression, 4T1 R8 cells; type: cell-based, mouse; conditions: 1 μM 7S9 and 400 nM paclitaxel
Method: (§1) To investigate the role of KIF2C in cell cycle progression, 4T1 cells were cultured in the 4-well chamber slide with about 50% confluence. The culture medium was replaced with a CO2-independent medium (Gibco) supplemented with 10% fetal bovine serum (Biological Industries) and 1% penicillin-streptomycin (Biowest). Then, each well of the chamber slide was treated with indicated drugs, such as DMSO, KIF2C inhibitors, or chemotherapy drugs. After that, the chamber slide was maintained in the microscope stage incubator with the supplement of humidified air with 5% CO2 at 37° C. Multiple-positional time-lapse imaging was performed using an automated Leica DM16000 inverted microscope equipped with HCX PL FL 20×/0.4 and EMCCD camera (Andor Luca R, Belfast, UK). Sequential differential interference contrast (DIC) images of cells obtained at indicated intervals were further analyzed using Metamorph software (Molecular Devices).

4T1 cells [3] = assay: In vivo tumor growth inhibition, 4T1 syngeneic model; design: species or system mouse; conditions: 4T1 tumors, BALB/c mice
Method: (§2) The mice were housed at the National Health Research Institute (NHRI) Animal Center in accordance with the Institutional Animal Care and Use Committee procedures and guidelines. The 4T1-derived cells, including 4T1, 4T1 R4, and 4T1 R8, used for implantation were harvested during log phase growth and resuspended in phosphate-buffered saline. Each mouse was injected s.c. in the right flank with 5×10^5 cells. After tumor size reached 60-100 mm 3 (D1), mice were divided into groups and received treatment with vehicle or different compounds alone or in combinations. Tumor size, in mm 3, was measured twice per week and calculated from Tumor volume=(w 2×1)/2, where w=width and 1=length in mm of the tumor. The values of tumor size were expressed as mean±SEM.

4T1 R4 = assay: In vivo tumor growth inhibition, 4T1 R4 syngeneic model; design: species or system mouse; conditions: R4 tumors, BALB/c mice
Method: as §2

[4] = tested on: HeLa cells expressing H2B-mCherry and eGFP-tubulin; assay: Live-cell imaging of intracellular microtubule distribution; type: cell-based
Method: For the microtubule distribution analysis, HeLa cell line stably expressing H2B-mCherry and eGFP-tubulin (a kind gift from Anthony A. Hyman, Max-Planck-Institute for Molecular Cell Biology and Genetics, Dresden, Germany) were treated with KIF2C inhibitors (10 μM DHTP or 10 μM 7S9) during imaging. Live-cell imaging was conducted on a Nikon T1 inverted fluorescence microscope (Nikon) with a 60× oil objective (Nikon), a Prime camera (Photometrics), and 37° C., 5% CO2 heat stage (Live Cell Instrument). Microtubule morphological changes were imaged at 3-min intervals. Images were obtained using ImageJ software processed with Gaussian Blur to remove the noise.

4T1 R4 cells [5] = assay: Colony formation assay, 4T1 R4 cells; type: cell-based, mouse; conditions: 1 μM 7S9 with 400 nM paclitaxel
Method: (§3) To assess the long-term survival of breast cancer cell lines following the treatment of KIF2C knockdown or inhibition, the cells trypsinized into single-cell suspension were homogeneously seeded in 6-well cell culture plates at a density of 5000 cells per dish, supplemented with 2× complete medium (50% 4×DMEM, 20% FBS, 2% penicillin-streptomycin, ddH2O, and 2× glutaMAX™), agarose (0.6% for bottom agar layer; 0.3% for top cell layer), ddH2O, and DMEM. After incubation for 24 hr, cells were treated with indicated drugs, such as DMSO, KIF2C inhibitors, or chemotherapy drugs, and then cultured at 37° C. incubator in an atmosphere of humidified air with 5% CO2 for a further 14-30 days. When the cell colonies grew to appropriate sizes, the culture mediums were replaced with PBS for washing. After that, the plates were stained with 10% crystal violet and analyzed using Image J.

4T1 R4 cells [6] = assay: Time-lapse imaging of mitotic progression, 4T1 R4 cells; type: cell-based, mouse; conditions: 1 μM 7S9 and 400 nM paclitaxel
Method: as §1

4T1 R8 = assay: In vivo tumor growth inhibition, 4T1 R8 syngeneic model; design: species or system mouse; conditions: R8 tumors, BALB/c mice, 7S9 50 mg/kg with paclitaxel 15 mg/kg
Method: as §2

4T1 R8 cells [7] = assay: Colony formation assay, 4T1 R8 cells; type: cell-based, mouse; conditions: 1 μM 7S9 with 400 nM paclitaxel
Method: as §3

[8] = 7S9 50 mg/kg intraperitoneally, 5on/2off two cycles

T1 sequence (Q99661 216-598): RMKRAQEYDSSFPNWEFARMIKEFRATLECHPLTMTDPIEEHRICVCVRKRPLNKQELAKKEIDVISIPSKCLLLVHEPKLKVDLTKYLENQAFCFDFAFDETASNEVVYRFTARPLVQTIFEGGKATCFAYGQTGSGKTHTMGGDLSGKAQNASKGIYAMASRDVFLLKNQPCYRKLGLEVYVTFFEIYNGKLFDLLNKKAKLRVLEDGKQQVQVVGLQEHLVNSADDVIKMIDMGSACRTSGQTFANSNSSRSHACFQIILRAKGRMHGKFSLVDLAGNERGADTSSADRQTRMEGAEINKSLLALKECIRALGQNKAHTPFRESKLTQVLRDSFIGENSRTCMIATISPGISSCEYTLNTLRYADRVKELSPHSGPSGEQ

- KIF2C-mediated microtubule depolymerization (in words) (KIF2C): completely blocked
- cell penetration, fluorescence signal at 510 nm emission (in words) (4T1 cells [1]): good cell-penetrating property
Compound: CCN1CCN(C(=O)COc2ccc(/C=c3\sc4n(c3=O)C(c3ccc(Cl)cc3)C(C(=O)OC(C)C)=C(C)N=4)cc2)CC1.O=C(O)/C=C\C(=O)O (stereo not drawn) [7S9 (133), isopropyl (Z)-5-(4-chlorophenyl)-2-(4-(2-(4-ethylpiperazin-1-yl)-2-oxoethoxy)benzylidene)-7-methyl-3-oxo-2,3-dihydro-5H-thiazolo[3,2-a]pyrimidine-6-carboxylate maleate]
- mitotic defects, combined treatment (in words) (4T1 R8 cells [2]): induced significant defects in mitosis
- tumor growth inhibition (4T1 cells [3]; [8]): 20.3%
- tumor growth inhibition, combination (4T1 cells [3]; 7S9 50 mg/kg with paclitaxel 5 mg/kg): 62.6%
- tumor growth inhibition (4T1 R4; [8]): 29%
- tumor growth inhibition, combination (4T1 R4; 7S9 50 mg/kg with paclitaxel 15 mg/kg): 70.2%
- intracellular microtubule distribution phenotype (in words) [4]: puncta formation of tubulins in the cytoplasm
- colony formation, combined treatment (in words) (4T1 R4 cells [5]): suppression of colony formation was detected only with combined treatment of 7S9 and paclitaxel
- mitotic defects, combined treatment (in words) (4T1 R4 cells [6]): induced significant defects in mitosis
- tumor growth inhibition, combination (4T1 R8): 66.2%
- colony formation, combined treatment (in words) (4T1 R8 cells [7]): suppression of colony formation was detected only with combined treatment of 7S9 and paclitaxel
